From patent US6573258B2, “Photodynamic porphyrin antimicrobial agents” (Frontier Scientific, Inc., priority 2000, dated 2003)

Experiments:
E. coli cells [1] = test: Decrease of cell survival (colony counting) after white-light irradiation; type: cell-based, Escherichia coli; conditions: 5 min dark incubation, 15 min white light (150 mW/cm^2)
Protocol: (§1) Escherichia coli strain O4 (wild type), and methycillin-resistant Staphylococcus aureus, strain MRSA 110, were grown aerobically at 37° C. in brain heart infusion broth (BHI, Difco, Detroit, Mich.). The cells in the stationary phase of growth were harvested by centrifugation (2,000 g for 15 min) of the broth cultures, washed twice with 10 mM PBS at pH=7.4, containing 2.7 mM KCl and 0.14 M NaCl, and suspended in PBS at a density of 10^8-10^9 cells/ml (absorbance of about 0.7 at 650 nm). Aliquots of 5 ml of the cell suspension were incubated with 1 μM porphyrins for 5 min in the dark at room temperature. After incubation the suspensions were centrifuged and the cell pellets were collected immediately or washed with PBS and centrifuged again for one or three times.
(§2) The toxic effects of T4MPyP and its analogues on E. coli and S. aureus cells were evaluated by measuring the extent of growth inhibition (bacteriostatic effect) and reduction of survival (cytocidal/bacteriocidal effect) following treatment with porphyrin in the dark or upon light exposure.
(§3) In all cases, 5 ml of the cell suspension (10^8-10^9 cells/ml) were incubated for 5 min in the dark at room temperature with the selected photosensitizer at concentrations ranging between 0.5 and 10 μM. After dark-incubation, some of the cell samples were irradiated with white light (150 mW/cm^2). During irradiation, (up to 30 min) the cells were kept at 37° C. and magnetically stirred. The treated and untreated control cells were diluted with BHI and maintained at 37° C. while the absorbance of the suspension at 650 nm was monitored at predetermined time periods for determining growth curves. The percent of growth inhibition in the treated cells was calculated by the following equation: […]
(§4) where AX, and AC are the absorbances measured after 3 h incubation, respectively, for the treated and control cell suspensions, respectively, while A0 represents the initial absorbance and the AC is that of the control cell suspension after 5 hours incubation. Cell survival was determined by plating serially diluted aliquots of treated and untreated cells on brain heart agar and counting the number of colonies after 18-24 h incubation at 37° C.

[2] = Fluorescence decay times (phase-shift method); type: physicochemical; conditions: ca. 5 μM, air-equilibrated buffer pH 7.4, λexc = 420 nm, λem > 600 nm
Protocol: Fluorescence decay times of the porphyrin samples were measured by means of a Spex Fluorolog-τ2 spectrofluorimeter based on the phase-shift method. The frequency response curves (phase-shift and demodulation ratio vs. frequency) were globally analyzed.

S. aureus cells [3] = test: Growth inhibition after 5 min incubation with porphyrin and white-light irradiation; type: cell-based, Staphylococcus aureus
Protocol: (§5) The abilities of various examples of the porphyrins of the instant invention to kill Gram-negative and Gram-positive bacteria were tested against that of T4MPyP. Each of the compounds was incubated with E. coli and S. aureus cells for 5 minutes, following which the samples were irradiated with white light for varying lengths of time.
as §1, §2
[…] After dark-incubation, some of the cell samples were irradiated with white light (150 mW/cm^2). During irradiation, (up to 30 min) the cells were kept at 37° C. and magnetically stirred. The treated and untreated control cells were diluted with BHI and maintained at 37° C. while the absorbance of the suspension at 650 nm was monitored at predetermined time periods for determining growth curves. The percent of growth inhibition in the treated cells was calculated by the following equation:
as §4

[4] = Triplet state properties by laser flash photolysis; type: physicochemical; conditions: phosphate-buffered solution; for φT, triplet quantum yield: ε920 estimated by total depletion method
Protocol: Laser flash photolysis experiments were carried out by use of the setup previously described in Gomer, et al., with excitation wavelengths of 355 and 420 nm. Gorner, et al., Photoinduced electron transfer between styrylanthracenes and electron donors and acceptors in acetonitrile, J. Chem. Soc. Faraday Trans., vol. 88, pp. 29-34 (1992).
The transient spectra of the porphyrins in buffer solutions were recorded upon laser flash photolysis excitation at 355 and 420 nm. […] The decay (growth) of the signal (bleaching) occurred according to first-order kinetics and led to a complete recovery of the ground state with a lifetime of 91 μs. […] This also allowed the triplet quantum yield (φT) to be determined (see Table 3), after calibration of the experimental setup by use of an optically-matched solution of benzophenone in acetonitrile.

[5] = Photostability (photobleaching) under white light; type: physicochemical; conditions: 1 μM in PBS
Protocol: The photostability of the porphyrins was determined in PBS upon illumination of […] solutions with white light (400-800 nm) isolated from the emission of a quartz-halogen lamp equipped with UV and infrared filters (Teclas, Lugano, Switzerland). The lamp was operated at a fluence rate of 150 mW/cm^2. During irradiation, the solution was magnetically stirred and kept at 37° C. The concentration of the porphyrin samples was monitored spectrophotometrically at different irradiation times and the photostability was expressed as the percent residual absorbance referred to the absorbance measured prior to irradiation.

E. coli cells [6] = test: Growth inhibition after 5 min incubation with porphyrin and white-light irradiation; type: cell-based, Escherichia coli
Protocol: as §5, §1, §2, §3, §4

[7] = Photosensitized photooxidation of NATA; conditions: 10 μM NATA; for ΦSDS × 10^3, quantum yield for photo-oxidation of NATA: aqueous 2% SDS; for ΦPBS × 10^3, quantum yield for photo-oxidation of NATA: phosphate buffered solution
Protocol: The photosensitizing activity of the various porphyrins was tested by measuring their efficiency in promoting the photooxidation of N-acetyl-L-tryptophanamide (NATA, Aldrich Chem. Co.) as a model biological substrate. Toward this aim, 10 μM NATA in PBS or in water containing 2% SDS was irradiated in the presence of 5 μM porphyrin. The irradiations were performed with 515±10 nm-light isolated by means of an interference filter (Balzers, Liechtenstein), while the solution (2 ml) was magnetically stirred in a quartz cuvette of 1-cm optical path and kept at 25° C. The photosensitized modification of NATA was followed by measuring the decrease in the intensity of its fluorescence emission spectrum (300-450 nm) upon excitation with 290 nm-light at various irradiation times. Plots of in F°/F (where F° and F represent the fluorescence intensity at time 0 and t, respectively) vs. the irradiation time allowed the first-order rate constants of the photo-process to be derived.
The intensity of the incident light was measured by using Aberchrome 999P in toluene as an actinometer. Heller, EPA Newslett., 29:49-60 (1987). This parameter was used to calculate the quantum yields of NATA photooxidation sensitized by the different porphyrins.

[8] = Fluorescence quantum yields; type: physicochemical; conditions: for ΦF (PBS), fluorescence quantum yield: in PBS; for ΦF (SDS), fluorescence quantum yield: in aqueous 2% SDS
Protocol: Ground-state absorption spectra of the porphyrins (ca. 5 μM in phosphate buffered saline (PBS, pH=7.4) were recorded with a Lambda 5 Perkin-Elmer spectrophotometer. Fluorescence spectra, corrected for the instrumental response, were recorded with a Perkin-Elmer (model LS) or a Spex (Fluorolog F112) spectrofluorimeter. Fluorescence quantum yields ((IF) of the porphyrin derivatives in PBS and in water containing 2% sodium dodecylsulfate (a detergent, hereinafter “SDS”) were determined by measuring the area of the emission spectrum (600-800 nm range, excitation at 560 nm) and using tetra-n-propylporphycene in toluene as a reference (ΦF=0.38). Braslavsky et al, J. Photochem. Photobiol. B: Biol., 40:191-198 (1997). In all cases, the absorbance of the sample and the reference solution were kept below 0.1 at the excitation wavelength to minimize inner filter effects.

S. aureus cells [9] = test: Binding of porphyrins to bacteria cells; type: cell-based, Staphylococcus aureus; conditions: S. aureus, 5 min incubation, 1 μM porphyrin, three PBS washings
Protocol: as §1
(§6) The amount of cell-bound porphyrins was determined in the pellets after resuspension and overnight-incubation in 2% aqueous SDS. The porphyrin concentration in the cell lysate was determined by measuring the intensity of red fluorescence (600-750 nm) emitted after excitation at 420 nm and interpolating the data on a calibration plot obtained with known porphyrin concentrations. The protein content of the cell samples was determined by the method of Lowry (Lowry et al., J. Biol. Chem., 193:265-275 (1951)) and was used to express the amount of porphyrin bound to the cells as nanomoles of porphyrin/mg of protein.

S. aureus cells [10] = test: Dark toxicity of porphyrins on bacteria cells; type: cell-based, Staphylococcus aureus; conditions: 10 μM, 5 min incubation in the dark
Protocol: as §2, §3, §4

E. coli cells [11] = test: Binding of porphyrins to bacteria cells; type: cell-based, Escherichia coli; conditions: 5 min incubation, 1 μM porphyrin, three PBS washings
Protocol: as §1, §6

E. coli cells [12] = test: Dark toxicity of porphyrins on bacteria cells; type: cell-based, Escherichia coli; conditions: 10 μM, 5 min incubation in the dark
Protocol: as §2, §3, §4

[13] = 1 μM, incubated 5 min, white light 5 min
[14] = Table 5: 1 μM, 5 min incubation, 5 min white light (150 mW/cm^2)
[15] = 10 μM, incubated 5 min, white light 5 min
[16] = 10 μM, incubated 5 min, white light 15 min
[17] = Table 5: 10 μM, 5 min incubation, 5 min white light (150 mW/cm^2)

Compound	DECREASE OF SURVIVAL (log) (E. coli cells [1]; 1 μM porphyrin)	DECREASE OF SURVIVAL (log) (E. coli cells [1]; 10 μM porphyrin)	A2, relative weight of slow component [2]	τ1, fluorescence decay time of fast component [2]	τ2, fluorescence decay time of slow component [2]	λmin of transient spectrum [4]	φ×ε920 [4]	τ^air, triplet lifetime [4]	φT, triplet quantum yield [4]	ΦSDS × 10^3, quantum yield for photo-oxidation of NATA [7]	ΦPBS × 10^3, quantum yield for photo-oxidation of NATA [7]	ΦF (PBS), fluorescence quantum yield [8]	ΦF (SDS), fluorescence quantum yield [8]	also measured
CCCCCCCCCCCCCCCCCCCCCC[n+]1ccc(-c2c3nc(c(-c4cc[n+](C)cc4)c4ccc([nH]4)c(-c4cc[n+](C)cc4)c4nc(c(-c5cc[n+](C)cc5)c5ccc2[nH]5)C=C4)C=C3)cc1.Cl.Cl.[Cl-].[Cl-].[Cl-].[Cl-] [Porphyrin C22, 5-(4-N-docosanyl)-10,15,20-tris(4-N-methylpyridyl)-21H,23H-porphine tetrachloride dihydrochloride salt]	+0.22 ± 0.07 log	−1.94 ± 0.28 log	73%	0.5 ns	5.9 ns	420 nm	<122 M⁻¹ cm⁻¹	0.1 μs	<0.08	0.83 ± 0.08	below our detection limits	0.001	0.029	Growth inhibition (%) S. aureus (S. aureus cells [3]; [13]): 69.7%; Growth inhibition (%) S. aureus (S. aureus cells [3]; 1 μM, incubated 5 min, white light 10 min): 90.2%; Growth inhibition (%) S. aureus (S. aureus cells [3]; Table 5: 0.5 μM, 5 min incubation, 5 min white light (150 mW/cm^2)): 27%; Growth inhibition (%) S. aureus (S. aureus cells [3]; [14]): 70%; t^1/2 of initial fast photodegradation phase [5]: 6.5 min; Growth inhibition (%) E. coli (E. coli cells [6]; [13]): 2.7%; Growth inhibition (%) E. coli (E. coli cells [6]; 1 μM, incubated 5 min, white light 30 min): 18.5%; Growth inhibition (%) E. coli (E. coli cells [6]; [14]): 3%
C[n+]1ccc(-c2c3nc(c(-c4cc[n+](C)cc4)c4ccc([nH]4)c(-c4cc[n+](C)cc4)c4nc(c(-c5cc[n+](C)cc5)c5ccc2[nH]5)C=C4)C=C3)cc1.Cc1ccc(S(=O)(=O)[O-])cc1.Cc1ccc(S(=O)(=O)[O-])cc1.Cc1ccc(S(=O)(=O)[O-])cc1.Cc1ccc(S(=O)(=O)[O-])cc1 [Porphyrin T4MPyP, Meso-tetra(N-methyl-4-pyridyl)porphine tetratosylate, reference compound]	+0.28 log	−1.82 ± 0.82 log	71%	1.0 ns	4.7 ns	425 nm	6814 M⁻¹ cm⁻¹	14 μs	0.73	0.64 ± 0.08	0.77 ± 0.21	0.017	0.031	initially bound porphyrin retained after three washings (S. aureus cells [9]): 16%; inhibition of bacterial cell growth in the dark (S. aureus cells [10]): barely detectable inhibition; A1, relative weight of fast component [2]: 29%; Growth inhibition (%) S. aureus (S. aureus cells [3]; [15]): 96.4%; Growth inhibition (%) S. aureus (S. aureus cells [3]; [16]): 100%; Growth inhibition (%) S. aureus (S. aureus cells [3]; [17]): 96%; λmax of transient spectrum [4]: 480 nm; τ^N2, triplet lifetime ([4]; N2): 91 μs; initially bound porphyrin retained after three washings (E. coli cells [11]): 11%; inhibition of bacterial cell growth in the dark (E. coli cells [12]): barely detectable inhibition; Growth inhibition (%) E. coli (E. coli cells [6]; [15]): 28.7%; Growth inhibition (%) E. coli (E. coli cells [6]; [16]): 82.8%; Growth inhibition (%) E. coli (E. coli cells [6]; [17]): 29%; concentration photoinducing significant bacteriostatic and bactericidal action (E. coli cells [6]; both cell strains (S. aureus and E. coli)): 10 µM
